# Source: patent US7192918B2, “Tripeptide and tetrapeptide sulfones” (Telik, Inc., priority 2005, dated 2007)
# Entries after “also recorded” stand apart in the source; their conditions may differ.
# Legend:
# [1] = molecular target: T1, Recombinant human GST A1-1 (Homo sapiens, UniProt P08263); assay: Inhibition of glutathione S-transferase isoenzyme GST A1-1 (CDNB/GSH, absorbance at 340 nm); assay type: biochemical; conditions: diacids (row number n = compound nA), pH 6.5, 2% DMSO
# T1 construct: purchased EMD Biosciences, Inc., San Diego, Calif., U.S.A
# T1 sequence (P08263 1-222): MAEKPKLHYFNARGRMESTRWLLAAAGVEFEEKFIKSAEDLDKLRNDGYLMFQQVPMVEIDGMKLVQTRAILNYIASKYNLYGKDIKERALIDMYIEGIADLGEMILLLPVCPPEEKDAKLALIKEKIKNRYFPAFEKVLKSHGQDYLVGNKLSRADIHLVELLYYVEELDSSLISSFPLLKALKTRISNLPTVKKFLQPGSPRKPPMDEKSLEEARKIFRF
# Procedure: (§1) In vitro Example 1. Inhibition of glutathione S-transferase isoenzymes. […] For each assay, the test compound and GSH were added to the isoenzyme. Immediately after the addition of CDNB solution to the isoenzyme/compound/GSH solution, the absorbance at 340 nm was recorded continuously for 5 min on a SpectraMax plate reader (Molecular Devices, Inc., Sunnyvale, Calif., U.S.A.). The GST inhibitory activity of each compound was calculated from the slopes of the absorbance/time curves at the various concentrations of test compound. All assays were conducted in duplicate wells, with DMSO control, with the final DMSO concentration maintained at 2%.
# [2] = molecular target: T2, Recombinant human GST M1-1 (Homo sapiens, UniProt P09488); assay: Inhibition of glutathione S-transferase isoenzyme GST M1-1 (CDNB/GSH, absorbance at 340 nm); assay type: biochemical; conditions: diacids (row number n = compound nA), pH 6.5, 2% DMSO
# T2 construct: purchased EMD Biosciences, Inc., San Diego, Calif., U.S.A
# T2 sequence (P09488 2-218 limits assumed): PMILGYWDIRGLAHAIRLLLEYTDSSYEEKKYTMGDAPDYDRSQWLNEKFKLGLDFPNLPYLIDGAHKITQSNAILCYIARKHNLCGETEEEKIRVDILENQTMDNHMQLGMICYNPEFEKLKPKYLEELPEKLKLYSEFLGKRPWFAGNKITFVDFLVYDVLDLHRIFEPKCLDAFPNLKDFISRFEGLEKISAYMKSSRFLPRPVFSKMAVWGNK
# Procedure: as §1
# [3] = molecular target: T3, Recombinant human GST P1-1 (Homo sapiens, UniProt P09211); assay: Inhibition of glutathione S-transferase isoenzyme GST P1-1 (CDNB/GSH, absorbance at 340 nm); assay type: biochemical; conditions: diacids (row number n = compound nA), pH 6.5, 2% DMSO
# T3 construct: purchased EMD Biosciences, Inc., San Diego, Calif., U.S.A
# T3 sequence (P09211 2-210 limits assumed): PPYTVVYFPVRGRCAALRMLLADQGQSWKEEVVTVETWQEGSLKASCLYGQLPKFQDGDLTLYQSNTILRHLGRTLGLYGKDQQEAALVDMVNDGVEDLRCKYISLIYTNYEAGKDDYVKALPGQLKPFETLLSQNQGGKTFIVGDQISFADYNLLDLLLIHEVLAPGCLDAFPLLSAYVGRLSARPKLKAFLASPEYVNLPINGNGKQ
# Procedure: as §1
# [4] = Phase II, interim results; cited from earlier work
# [5] = system: HL-60 cells; assay: Enhancement of differentiation of HL-60 cells (CD11b surface expression, flow cytometry); assay type: cell-based, human; conditions: diethyl esters, 24 hours
# Procedure: Some of the diethyl ester compounds of this invention were also tested for their ability to enhance the differentiation of HL-60 cells. This illustrates the beneficial effect of the compounds of this invention in stimulating differentiation of the HL-60 human leukemia cell line in vitro. […] The cells were harvested by centrifugation (1250 rpm for 5 min at 20° C.) and washed with 2 mL ice-cold phosphate-buffered saline (PBS) containing 2% FBS, then stained with 10 μL phycoerythrin-conjugated anti-CD11b antibody or 10 μL phycoerythrin-conjugated isotype control antibody. After standing for 30 min on ice, the cells were re-suspended in 2 mL ice-cold PBS containing 2% FBS. The cells were harvested by centrifugation (1250 rpm for 5 min at 20° C.) and resuspended in 0.4 mL PBS containing 2% FBS. The specific cell surface expression of CD11b, a marker for granulocytes and monocytes, was detected by flow cytometry using a FACSCalibur analyzer (BD Biosciences). All assays were conducted in triplicate, with DMSO control. The extent of differentiation was expressed as a multiple of the signal from the DMSO control.
# [6] = system: HL-60 cells; conditions: background statement; cited from earlier work
# [7] = both in vitro and in vivo; cited from earlier work
compound,measurement,setting,value
"N[C@@H](CCC(=O)N[C@@H](CS(=O)(=O)Cc1ccc([N+](=O)[O-])o1)C(=O)N[C@@H](C(=O)O)c1ccccc1)C(=O)O [Compound 14A, L-γ-glutamyl-3-[(5-nitrofuran-2-ylmethyl)sulfonyl]-L-alanyl-D-phenylglycine]",IC50,[1],52 µM
same,IC50,[2],100 µM
same,IC50,[3],3.2 µM
CCOC(=O)[C@@H](N)CCC(=O)N[C@@H](CSCc1ccccc1)C(=O)N[C@@H](C(=O)OCC)c1ccccc1 [TLK199],Hematologic response in humans,[4],myelostimulant activity in humans; also recorded: multilineage hematologic improvement
same,Tolerability in MDS patients,[4],well tolerated
same,Differentiation of HL-60 cells (CD11b expression as multiple of DMSO control),[5],enhances differentiation
same,Differentiation of HL-60 promyelocytic leukemia cells in vitro,[6],induce the differentiation of HL-60 promyelocytic leukemia cells
same,Potentiation of the activity of cytotoxic agents,[7],chemopotentiation activity in an animal model
